Target: T1, human AT1R (Homo sapiens, UniProt P30556)
T1 sequence (P30556 1-359): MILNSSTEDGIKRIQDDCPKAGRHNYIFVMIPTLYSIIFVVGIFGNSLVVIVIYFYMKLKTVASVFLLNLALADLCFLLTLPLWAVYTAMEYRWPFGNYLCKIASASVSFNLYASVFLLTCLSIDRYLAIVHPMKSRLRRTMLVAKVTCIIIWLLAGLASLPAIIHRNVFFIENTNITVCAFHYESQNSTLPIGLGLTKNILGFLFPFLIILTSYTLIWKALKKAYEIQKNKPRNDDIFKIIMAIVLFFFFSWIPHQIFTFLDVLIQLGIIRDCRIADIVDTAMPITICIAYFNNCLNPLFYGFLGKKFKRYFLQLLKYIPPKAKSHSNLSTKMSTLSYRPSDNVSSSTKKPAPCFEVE
Type: cell-based
Conditions: CellKey assay, Fig. 1C

[Sar^1, Cys^5, Leu^8]‐AngII
potency at β‐arrestin stimulation relative to AngII and SII: less potent than AngII but more potent than SII

Reference: article PMC4804318 (Pharmacology Research & Perspectives, 2016)
